Experimental data taken from patent US7485759B2, “Minimization of ligand degradation products, or reversion of same to useful phosphine ligands” (Dow Technology Investments LLC, priority 2003, dated 2009).

Columns and labels:
[1] = Batch hydroformylation of soy oil methyl esters; average rate of phosphonium ligand degradation product formation by 31P NMR (Comparative Experiment 5, Example 5); assay type: physicochemical; details: 30 psig, reaction time 4 days
Protocol: The hydroformylation of soy oil methyl esters was conducted at 100° C. for comparative purposes to illustrate the effect of temperature on the formation of ligand degradation products. Under a nitrogen atmosphere, a hydroformylation catalyst solution was prepared containing Ligand A (2.208 g, 5.866 mmol, initial ligand concentration in the reactor: 0.10M), Rh(CO)2acac (0.0366 g, 0.142 mmol), and 1-methyl-2-pyrrolidone (NMP, 16.05 g). Ligand A, the mono-sulfonated sodium salt of bis(dicyclohexyl)phenylphosphine, has the following structure.
Also prepared under nitrogen was a neat solution of soybean oil-derived methyl esters (33.95 g, 115.08 mmol), prepared by the transesterification of soybean oil with methanol using standard methods known in the art. Soybean oil contains polyunsaturated esters. Under nitrogen, the catalyst solution was added into a 100 mL stainless steel reactor, and the soy methyl esters were added into a substrate delivery cylinder attached to the reactor. […] The average rate of phosphonium ligand degradation product formation was determined using the NMR data.
The hydroformylation of soy oil methyl esters was conducted at 85° C. as an example of the invention to illustrate the effect of temperature on the formation of ligand degradation products. […] The average rate of phosphonium ligand degradation product formation was determined using the NMR data.

[2] = Continuous hydroformylation mini-plant with soy methyl esters; formation rate of phosphonium degradation products (Examples 6-8, Comparative Experiment 6); assay type: physicochemical
Protocol: The formation rate of phosphonium degradation products was measured in a continuous hydroformylation mini-plant, which consisted of a reaction system comprised of three reactors in series and a product/catalyst separation system with catalyst recycle. The reactors were charged with a catalyst solution containing Ligand A (2.5 wt %) shown in Example 5 hereinabove, Rh(CO)2acac (500 ppm Rh), and 20 wt % 1-methyl-2-pyrrolidone (NMP). A mixture of soy methyl esters was fed continuously to the first reactor. The reactors were operated at 600 psig (4,137 kPa) pressure by continuously feeding a gaseous mixture of carbon monoxide and hydrogen (CO:H2=1:1 vol/vol). The reaction was conducted for 153 hours continuously at 85° C. The formation rate of phosphonium degradation products was measured to be 0.02 g/liter/day during this period. The pressure of carbon monoxide and hydrogen (CO:H2=1:1 vol/vol) was then reduced to 400 psig (2,758 kPa) while keeping the temperature and other conditions unchanged. The reaction was conducted for 59 hours, and the formation rate of phosphonium degradation products was measured to be 0.03 g/liter/day during this period. The results illustrate a low rate of phosphonium formation at a pressure greater than 300 psig, and further that phosphonium formation decreases with increasing pressure.
The formation rate of phosphonium degradation products was measured in a continuous hydroformylation mini-plant similar to the system described in Example 6. The reaction system was charged with a catalyst solution containing Ligand A (2.5 wt %) as shown in Example 5 hereinabove, Rh(CO)2acac (500 ppm Rh), and 20 wt % 1-methyl-2-pyrrolidone (NMP). Soy methyl esters were fed continuously to the reaction system. The reactors were operated at 400 psig (2,758 kPa) pressure by continuously feeding a gaseous mixture of carbon monoxide and hydrogen (CO:H2=1:1 vol/vol). The reaction was conducted continuously for 59 hours with all reactors at 85° C. The formation rate of phosphonium degradation products was measured to be 0.03 g/liter/day during this period.
For comparative purposes, Example 7 was repeated with the exception that the temperature of the last reactor was increased to 100° C. while keeping the temperature of all other reactors at 85° C. All other conditions remained unchanged. The reaction was conducted for 140 hours and the formation rate of phosphonium degradation products was measured to be 0.07 g/liter/day during this period.
The formation rate of phosphonium degradation products was measured in a continuous hydroformylation mini-plant similar to the one described in Example 6. The reaction system was charged with a catalyst solution containing Ligand A (2 wt %), Rh(CO)2acac (300 ppm Rh), and 30 wt % 1-methyl-2-pyrrolidone (NMP). Soy methyl esters, were fed continuously to the reaction system. The reactors were operated at 300 psig (2,068 kPa) pressure by continuously feeding a gaseous mixture of carbon monoxide and hydrogen (CO:H2=1:1 vol/vol). The reaction was conducted continuously for 150 hours at 95° C. The formation rate of phosphonium degradation products were measured to be 0.05 g/liter/day during this period. The pressure of the reaction system was increased to 600 psig (4136 kPa), and the temperature of the reaction system was decreased to 85° C., while keeping all other conditions unchanged. The reaction was conducted for 350 hours and the formation rate of phosphonium degradation products was measured to be 0.02 g/liter/day during this period.

- Phosphonium formation rate Average ([1]; 85° C., initial ligand concentration 0.14 M): 0.04 g/L/day
- Phosphonium formation rate (Average g/L/day) ([1]; 100° C., initial ligand concentration 0.10M): 0.1 g/L/day
- formation rate of phosphonium degradation products ([2]; Comparative Experiment 6, 400 psig, last reactor 100° C., other reactors 85° C., 140 hours): 0.07 g/L/day
- formation rate of phosphonium degradation products ([2]; Example 6, 400 psig, 85° C., 59 hours, Ligand A 2.5 wt %): 0.03 g/L/day
- formation rate of phosphonium degradation products ([2]; Example 6, 600 psig, 85° C., 153 hours, Ligand A 2.5 wt %): 0.02 g/L/day
- formation rate of phosphonium degradation products ([2]; Example 7, 400 psig, all reactors at 85° C., 59 hours, Ligand A 2.5 wt %): 0.03 g/L/day
- formation rate of phosphonium degradation products ([2]; Example 8, 300 psig, 95° C., 150 hours, Ligand A 2 wt %): 0.05 g/L/day
- formation rate of phosphonium degradation products ([2]; Example 8, 600 psig, 85° C., 350 hours, Ligand A 2 wt %): 0.02 g/L/day
SMILES: O=S(=O)([O-])c1cccc(P(C2CCCCC2)C2CCCCC2)c1.[Na+] [Ligand A, mono-sulfonated sodium salt of bis(dicyclohexyl)phenylphosphine]
